Columns and labels:
[1] = Comparative dissolution of hard gelatin capsules, USP apparatus type II, purified water; type: physicochemical; conditions: size 1 hard gelatin capsule, 200 mg ibuprofen, paddle 50 rpm, 900 mL purified water
Experimental: Ibuprofen powder (supplied by BASF) was similarly filled manually into size 1 hard gelatin capsules to yield 200 mg ibuprofen per capsule.
Capsules were tested using a USP dissolution apparatus type II with a paddle speed of 50 rpm and 900 mL of purified water as a dissolution medium.

[2] = Angle of repose (flowability of powder); type: physicochemical
Experimental: The dried granules were lubricated with 0.25% w/w magnesium stearate and compressed using a Piccola 10 station rotary tablet press. The lubricated granules had angle of repose 26.56° compared with ibuprofen powder (supplied by BASF) having an angle of repose 48.01°. The resultant compressed tablets had hardness 6.1 kp and thickness 4.80 mm.

% dissolution ([1]; 10 min): 2.2%
% dissolution ([1]; 20 min): 5.9%
% dissolution ([1]; 30 min): 9.2%
angle of repose [2]: 48.01 °
Structure (SMILES): CC(C)Cc1ccc(C(C)C(=O)O)cc1 (stereo not shown) [ibuprofen powder, ibuprofen]
